The test deals with T1, GTPase KRas [1-37] (Homo sapiens, UniProt G3V5T7).
T1 construct: 1-37
The test is described as follows: inhibitors of GTP binding, activated Ras, SAR follow-up, biochemical, additional analogs, activated mutant, multiplex flow cytometry, Ki (AID 2043). A general note: In flow cytometry, cells or beads pass a laser one at a time.

Bounds are passed on as bounds.

T1 sequence (G3V5T7 whole entry): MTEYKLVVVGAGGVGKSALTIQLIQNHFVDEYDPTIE

Broadly, the EC50 is the concentration needed to bring the measured effect to its halfway point. For `O=C1N=c2c(Br)cccc2=C1c1[nH]c2ccccc2c1NO` [7-bromanyl-3-[3-(oxidanylamino)-1H-indol-2-yl]indol-2-one], the EC50 is > 30 µM.

On to `O=C1Nc2c(Cl)cccc2C1=C1Nc2ccccc2C1=O`, for which the half-maximal effective concentration (EC50) is > 30 µM.

Turning to `O=C1N=c2ccccc2=C1c1[nH]c2ccccc2c1NO` [3-[3-(hydroxyamino)-1H-indol-2-yl]-2-indolone], the 50% effective concentration (EC50) is > 30 µM.

Turning to `O=C1Nc2c(Br)cccc2C1=C1Nc2ccccc2C1=O`, the EC50 is > 30 µM.

Take `O=C1Nc2ccc(Br)cc2C1=C1Nc2ccccc2C1=O`: the concentration giving a half-maximal response (EC50) is > 30 µM.

Regarding `O=C1N=c2c(Cl)cccc2=C1c1[nH]c2ccccc2c1NO` [7-chloro-3-[3-(hydroxyamino)-1H-indol-2-yl]-2-indolone], the EC50 is > 30 µM.

Turning to `O=C1Nc2ccccc2/C1=C1/Nc2ccccc2C1=O` [2-[(3Z)-2-oxo-2,3-dihydro-1H-indol-3-ylidene]-2,3-dihydro-1H-indol-3-one], the half-maximal effective concentration (EC50) is > 30 µM.

On to `O=C1NC(=S)N/C1=C1\C(=O)Nc2ccccc21` [(3Z)-3-(5-oxo-2-sulfanylideneimidazolidin-4-ylidene)-1H-indol-2-one], for which the EC50 is > 30 µM.

For the molecule `O=C1NC(=O)/C(=C2/C(=O)Nc3ccccc32)N1`, the EC50 is > 30 µM.

In the case of `O=C1Nc2c(F)cccc2C1=C1Nc2ccccc2C1=O`, the EC50 is > 30 µM.

As for `O=C1N=c2ccc(Br)cc2=C1c1[nH]c2ccccc2c1NO` [5-bromanyl-3-[3-(oxidanylamino)-1H-indol-2-yl]indol-2-one], the EC50 was > 30 µM.

Regarding `O=C1N=c2c(F)cccc2=C1c1[nH]c2ccccc2c1NO` [7-fluoro-3-[3-(hydroxyamino)-1H-indol-2-yl]-2-indolone], the EC50 was > 30 µM.

(Values after BindingDB's records for doi:10.7270/Q23N21VG (Nmmlsc, 2009).)
